Values after ≈ are worked out from the molar mass of the structure shown. “Also recorded” adds a separate entry of the source. Marks after values point to notes of the source that are not given here.
Experiments:
[1] = system: VEGF production in tumor cells; experiment: VEGF production in tumor cells (data not shown); type: cell-based; settings: in words
Excerpt: In addition to its effects on pathological VEGF production, a Compound provided herein provokes a late GI/early S-Phase cell cycle delay, i.e., between the late resting or pre-DNA synthesis phase, and the early DNA synthesis phase in those tumor cell lines in which VEGF generation is decreased by the Compound. See Section 8.3. […] The cell cycle delay and inhibition of pathological VEGF protein production occur in concert, linking these phenotypes in inflammation, pathological angiogenesis and tumor growth. […] Thus, these experiments indicate that the effects of the Compound on the tumor cell cycle occur in parallel with its actions on pathological VEGF production in tumors.

[2] = mouse, in vivo
[3] = system: Caki-1 cells; experiment: Caki-1 renal cell carcinoma xenograft (VHL-positive), tumor volume; type: in vivo, mice
Experimental: The Caki-1 cell line expresses the von Hippel-Lindau (VHL) protein which acts as a tumor suppressor by promoting the rapid degradation of HIF-1α (hypoxia-inducible factor 1α) under normoxia. Under hypoxic conditions, HIF-1α is stabilized and activated by the inability of VHL to act resulting in increased transcription of VEGF that is responsible for the high vascularization of RCC (see Turcotte et al, 2003, Zimmer et al, 2004).
(§1) A total of 100 mice were injected, of which 60 were used in the study.
Groups were taken off study when the mean tumor volume in a group was 1300 mm^3 or more. Vehicle-treatment started on Day 0 and continued through Day 35. Compound #10-treatment started on Day 0 and continued through Day 52.
(§2) Tumors were measured twice per week using digital calipers.
[…] The median values were reported.

[4] = 786-O xenograft study: body weight and clinical observations; settings: 786-O study
[5] = Caki-1 xenograft study: body weight and clinical observations; type: in vivo, mice; settings: Caki-1 study
Excerpt: Body Weight: The mice were weighed once per week.

[6] = system: 786-O cells; experiment: 786-O renal cell carcinoma xenograft (VHL-negative), tumor volume; type: in vivo, mice
Experimental: Both sunitinib and rapamycin are used clinically for treatment of renal cancer.
as §1
Groups were taken off study when the mean tumor volume in a group was 1300 mm^3 or more. Vehicle-treatment started on Day 0 and continued through Day 57. Compound #10-treatment started on Day 0 and continued through Day 88.
as §2
The time to progression to reach a tumor volume 1000 mm^3 was calculated for each mouse. The median values were reported.

[7] = Plasma trough levels in patients having a variety of cancers; type: in vivo, human; settings: combination therapy with Compound #10; in words
[8] = Bioavailability in vivo of aqueous suspension; settings: in words
Excerpt: It is anticipated that Compound 1205 can be clinically administered via a solid-dosage form. For all the studies outlined herein, Compound 1205 was lyophilized prior to formulation to minimize batch-to-batch variations in particle-size.

[9] = system: HT1080 cells; experiment: Cell cycle analysis of HT1080 cells (propidium iodide, flow cytometry); type: cell-based, human; settings: 10 nM, 18 hours, normoxic conditions; in words
Experimental: During the in vitro evaluation of Compound 1205 effects on VEGF expression, an examination of its actions on tumor cell cycling was performed. HT1080 cells were incubated under normoxic conditions (21% oxygen) for 18 hours with vehicle (0.5% DMSO) alone, or with 10 nM of Compound 1205. After treatment, cells were trypsinized, and stained with propidium iodide (PI) dye to measure DNA content of individual cells by flow cytometry. Output comprised histograms showing relative DNA content in 10,000 cells.

[10] = system: hypoxia-induced VEGF production in HeLa cells; experiment: cells; type: cell-based, human
[11] = system: murine kidney VEGF; experiment: Mouse kidney VEGF levels in tumor-bearing mice; type: in vivo; settings: 0.5 mg/kg (28 days) or 3 mg/kg (32 days); in words
Experimental: After mouse tumors reached 1500 mm^3, mice were sacrificed and tissues were collected at the time of necropsy, homogenized, and analyzed. On average, mice treated with Compound 1205 at 0.5 mg/kg were on study for 28 days, and mice treated with Compound 1205 at 3 mg/kg were on study for 32 days.

[12] = Solubility in water
[13] = system: HT1080 xenografts; experiment: HT1080 xenograft tumor growth in male athymic nude mice; type: in vivo
Excerpt: Experimental Design. HT1080 cells (5×10^6 cells/mouse) were implanted subcutaneously in male athymic nude mice. […] For comparison, Compound #10 was included in this study.

[14] = system: human VEGF; experiment: Intra-tumor and plasma human VEGF in HT1080 xenograft mice (ELISA); type: in vivo; settings: for Mean difference in human plasma VEGF (%) on Day 14 / Mean difference in human tumor VEGF (%) at Day 14: 14 days
Excerpt: Human HT1080 cells (5×10^6 cells/mice) were implanted subcutaneously into male athymic nude mice. Human HT1080 cells constitutively produce human VEGF. Treatment with vehicle alone or Compound 1205 was initiated when the median tumor volume was approximately 311±88 mm^3. Table 3 and Table 4 provide the study design for assessing tumor and pathological plasma VEGF concentrations—each group in each study included eight (8) mice. When the tumors in vehicle-treated mice had reached the target size of about 1200 mm^3 for study #21 and about 1500 mm^3 for study #23, all mice in the study were sacrificed, and excised tumors were homogenized in buffer containing protease inhibitors. Both intra-tumor and plasma human VEGF levels were measured using an ELISA that recognizes human VEGF121 and VEGF165. Intra-tumor VEGF levels were normalized to the total tumor protein concentration and plasma VEGF levels were expressed in pg/mL. Because smaller tumors produce less VEGF per mg of tumor protein, intra-tumor VEGF levels were normalized to tumor size.

For `NC(Cn1ccc(=O)c(O)c1)C(=O)O` (centres unmarked) [mimosine], the “Effect on VEGF production” value [1] was “does not reduce VEGF production”.
In the case of `CO[C@H]1C[C@@H]2CC[C@@H](C)[C@@](O)(O2)C(=O)C(=O)N2CCCC[C@H]2C(=O)O[C@H]([C@H](C)C[C@@H]2CC[C@@H](O)[C@H](OC)C2)CC(=O)[C@H](C)/C=C(\C)[C@@H](O)[C@@H](OC)C(=O)[C@H](C)C[C@H](C)/C=C/C=C/C=C/1C` [rapamycin], the “Mice of the treatment group that had died or were sacrificed due to sickness” value [2] is reported as 1 of the 10 mice, the “Median time for tumors to reach 1000 mm^3” value ([3]; Compound #10 10 mg/kg QD PO, sunitinib 75 mg/kg QD PO, rapamycin 15 mg/kg PO) is reported as 43 days and the “Tumors smaller than those in vehicle-treated mice” value ([3]; Day 35, Compound #10 10 mg/kg QD PO, sunitinib 75 mg/kg QD PO, rapamycin 15 mg/kg PO) is reported as 60%. For the same molecule, the “Tumor size (mean±SD)” value ([3]; Day 63, 15 mg/kg PO) was 1689±1081 mm^3, the Body weight loss ([4]; Day 7) was 2.4% and the Body weight loss ([4]; Day 14) was 2.8%. For the same molecule, the “Survival of treated mice” value ([4]; all mice, in words) was “survived until sacrificed”, the “Body weight change from initial body weight” value ([4]; in words) was “transiently lost weight” and the Body weight loss ([5]; Day 8) was 4.3%. For the same molecule, the Body weight loss ([5]; Day 14) was 5.8%, the “Mice of the treatment group that had died” value ([5]; by Day 65) was 6 of the 10 mice and the “Body weight change from initial body weight” value ([5]; in words) was “transiently lost weight”. For the same molecule, the “Individual mice found dead or sacrificed” value ([5]; in words) was “found dead on Day 14; also recorded: found dead on Day 62; also recorded: found dead on Day 63”, the “Median time for tumors to reach 1000 mm^3” value ([6]; Compound #10 10 mg/kg QD PO, sunitinib 75 mg/kg QD PO, rapamycin 15 mg/kg PO, time on study used if not reached) was 87 days and the “Tumors smaller than those in vehicle-treated mice” value ([6]; Day 57, Compound #10 10 mg/kg QD PO, sunitinib 75 mg/kg QD PO, rapamycin 15 mg/kg PO) was 49%. For the same molecule, the “Tumor size (mean±SD)” value ([6]; Day 93, 15 mg/kg PO) was 1715±393 mm^3.
With `CC(=O)O[C@@]12CO[C@@H]1C[C@H](O)[C@@]1(C)C(=O)[C@H](O)C3=C(C)[C@@H](OC(=O)[C@H](O)[C@@H](NC(=O)OC(C)(C)C)c4ccccc4)C[C@@](O)([C@@H](OC(=O)c4ccccc4)[C@H]21)C3(C)C` [docetaxel] the “PK profile (FIG. 18)” value [7] was “consistent with historical data”.
For `O=C(Oc1ccc(Cl)cc1)N1CCc2c([nH]c3ccc(Cl)cc23)[C@@H]1c1ccc(OCC[C@H](O)CO)cc1` [Compound 1205], the Bioavailability [8] was “bioavailable in vivo”, the “Cell cycle distribution (relative DNA content, FIG. 5)” value [9] was “induced a redistribution of the cycling characteristics of the cell population” and the “Inhibition of stress-induced VEGF production (FIG. 1)” value [10] was “inhibit stress-induced VEGF production”. The EC50 ([10]; Homo sapiens, HeLa) was < 8 nM, the “Murine kidney VEGF levels (FIG. 6)” value [11] was “did not significantly decrease murine kidney VEGF levels” and the solubility [12] was ~1 µg/mL (≈ 1.85 µM). The “Lowest dose at which active” value ([13]; HT1080 xenograft) was ≤ 0.3 mg/kg, the “Mean difference in tumor growth rate at the Day that the vehicle-treated tumors taken off study (%)” value (“Mean difference in tumor growth rate … (%)” below) ([13]; Study 21, 0.5 mg/kg QD, Day 14) was 61%** and the “Final mean terminal tumor size in treatment group (mm^3)” value (“Final mean terminal tumor size” below) ([13]; Study 21, 0.5 mg/kg QD, administered 14 days) was 580 mm^3. The “Mean difference in tumor growth rate … (%)” value ([13]; Study 21, 3 mg/kg QD, Day 14) was 80%**, the “Final mean terminal tumor size” value ([13]; Study 21, 3 mg/kg QD, administered 14 days) was 379 mm^3 and the “Difference vs. vehicle in median number of days to reach 1000 mm^3,” value ([13]; Study 22, 0.5 mg/kg QD) was 11 days. The “Mean difference in tumor growth rate … (%)” value ([13]; Study 22, 0.5 mg/kg QD, Day 11) was 62%**, the “Final mean terminal tumor size” value ([13]; Study 22, 0.5 mg/kg QD, administered 28 days) was 1750 mm^3 and the “Difference vs. vehicle in median number of days to reach 1000 mm^3, (Days)” value ([13]; Study 22, 3 mg/kg QD) was 14** Days. For the same molecule, the “Mean difference in tumor growth rate … (%)” value ([13]; Study 22, 3 mg/kg QD, Day 11) was 75%**, the “Final mean terminal tumor size” value ([13]; Study 22, 3 mg/kg QD, administered 32 days) was 1840 mm^3 and the “Mean difference in tumor growth rate … (%)” value ([13]; Study 23, 1 mg/kg QD, Day 14) was 59%**. The “Final mean terminal tumor size” value ([13]; Study 23, 1 mg/kg QD, administered 14 days) was 710 mm^3, the “Difference vs. vehicle in median number of days to reach 1000 mm^3, (Days)” value ([13]; Study 24a, 10 mg/kg QD, Compound 1205 column) was 14** Days and the “Mean difference in tumor growth rate … (%)” value ([13]; Study 24a, 10 mg/kg QD, Day 11, Compound 1205 column) was 76%**. The “Final mean terminal tumor size” value ([13]; Study 24a, 10 mg/kg QD, administered 30 days) was 1400 mm^3, the “Difference vs. vehicle in median number of days to reach 1000 mm^3,” value ([13]; Study 24b, 0.3 mg/kg QD) was 0.7 days and the “Mean difference in tumor growth rate … (%)” value ([13]; Study 24b, 0.3 mg/kg QD, Day 15) was 28%. The “Final mean terminal tumor size” value ([13]; Study 24b, 0.3 mg/kg QD, administered 16 days) was 1540 mm^3, the “Growth of HT1080 tumors in vivo (FIG. 4)” value ([13]; study #24a, 10 mg/kg QD, in words) was “significantly delayed growth of HT1080 tumor cells in vivo” and the “Inhibition of plasma VEGF levels” value ([14]; 0.5 or 3 mg/kg QD) was “more than 95%”. For the same molecule, the “Inhibition of tumor VEGF levels” value ([14]; 0.5 or 3 mg/kg QD) was “more than 95%”, the “Mean difference in human plasma VEGF (%) on Day 14” value (from here on “Mean difference … (%) on Day 14”) ([14]; Study #21, 0.5 mg/kg QD) was 97%** and the “Mean difference in human tumor VEGF (%) at Day 14” value (from here on “Mean difference … (%) at Day 14”) ([14]; Study #21, 0.5 mg/kg QD) was 95%**. The “Mean difference … (%) on Day 14” value ([14]; Study #21, 3 mg/kg QD) was 99%, the “Mean difference … (%) at Day 14” value ([14]; Study #21, 3 mg/kg QD) was 98%** and the “Mean difference … (%) on Day 14” value ([14]; Study #23, 1 mg/kg QD) was 100%**. The “Mean difference … (%) at Day 14” value ([14]; Study #23, 1 mg/kg QD) was 95** % and the “Volume normalized intra-tumor VEGF levels” value ([14]; treated groups vs vehicle, in words) was “significantly reduced”.
